Measurements: BindingDB's records for doi:10.7270/Q2TX3CSC (Vanderbilt Screening Center for GPCRs, Ion Channels and …, 2009)

target: T1, Solute carrier family 12 member 5 (Homo sapiens, UniProt Q9H2X9); assay: KCC2 modulator potency by thallium flux, dose response, cell-based, HEK293 KCC2, FluoZin-2 fluorescence (AID 1736); conditions: not given
T1 sequence (Q9H2X9 whole entry): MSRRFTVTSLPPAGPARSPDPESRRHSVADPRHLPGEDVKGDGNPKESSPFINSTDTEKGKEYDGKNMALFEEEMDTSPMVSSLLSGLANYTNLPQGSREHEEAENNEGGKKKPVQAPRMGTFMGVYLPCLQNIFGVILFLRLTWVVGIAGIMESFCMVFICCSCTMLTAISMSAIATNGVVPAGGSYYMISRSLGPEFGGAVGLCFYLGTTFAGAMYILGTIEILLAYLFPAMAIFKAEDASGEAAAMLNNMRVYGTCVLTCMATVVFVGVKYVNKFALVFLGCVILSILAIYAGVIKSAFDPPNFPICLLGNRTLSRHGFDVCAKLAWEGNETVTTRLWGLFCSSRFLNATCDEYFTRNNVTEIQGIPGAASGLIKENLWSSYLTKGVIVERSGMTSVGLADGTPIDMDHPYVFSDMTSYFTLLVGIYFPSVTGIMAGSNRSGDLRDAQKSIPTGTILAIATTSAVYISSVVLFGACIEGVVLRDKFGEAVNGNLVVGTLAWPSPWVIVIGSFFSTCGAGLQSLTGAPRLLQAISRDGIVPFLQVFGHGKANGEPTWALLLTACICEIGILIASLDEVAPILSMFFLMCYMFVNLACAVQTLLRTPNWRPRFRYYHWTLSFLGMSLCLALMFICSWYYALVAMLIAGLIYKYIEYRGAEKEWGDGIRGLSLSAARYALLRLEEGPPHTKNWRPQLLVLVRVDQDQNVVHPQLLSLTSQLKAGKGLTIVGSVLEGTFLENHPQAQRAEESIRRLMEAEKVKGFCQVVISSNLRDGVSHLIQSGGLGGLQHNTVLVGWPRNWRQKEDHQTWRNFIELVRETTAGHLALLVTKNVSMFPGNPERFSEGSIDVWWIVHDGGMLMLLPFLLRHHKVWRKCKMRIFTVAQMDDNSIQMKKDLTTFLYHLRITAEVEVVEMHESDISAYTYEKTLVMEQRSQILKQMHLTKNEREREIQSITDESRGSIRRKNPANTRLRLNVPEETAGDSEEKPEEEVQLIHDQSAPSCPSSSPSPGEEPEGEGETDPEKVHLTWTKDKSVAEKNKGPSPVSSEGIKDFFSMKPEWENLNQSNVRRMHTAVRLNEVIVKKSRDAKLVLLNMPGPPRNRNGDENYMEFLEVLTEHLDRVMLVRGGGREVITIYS

SMILES | EC50
Cc1cc(C)c(C#N)c(N2CCN(Cc3ccccc3)CC2)n1 [2-(4-benzyl-1-piperazinyl)-4,6-dimethylnicotinonitrile] | 11.3 µM
Cc1noc(/C=C/c2ccco2)c1S(=O)(=O)N1CCC(C(=O)N2CCc3ccccc3C2)CC1 [2-{[1-({5-[(E)-2-(2-furyl)vinyl]-3-methylisoxazol-4-yl}sulfonyl)piperidin-4-yl]carbonyl}-1,2,3,4-tetrahydroisoquinoline] | 4.09 µM
S=C(NCc1cccnc1)Nc1ccc(Oc2ccccc2)cc1 [1-(4-phenoxyphenyl)-3-(3-pyridinylmethyl)thiourea] | 8.45 µM
N#CC(C(=O)COc1ccccc1)c1nc2ccccc2s1 (stereo not drawn) [(2Z)-2-(3H-1,3-benzothiazol-2-ylidene)-3-keto-4-phenoxy-butyronitrile] | 8.56 µM
O=C(OCC(=O)N1CCc2ccccc2C1)c1ccc(N2CCOCC2)c([N+](=O)[O-])c1 [4-(4-morpholinyl)-3-nitrobenzoic acid [2-(3,4-dihydro-1H-isoquinolin-2-yl)-2-oxoethyl] ester] | 5.37 µM
S=C(NN=Cc1cccc2ccccc12)Nc1cccc(Cl)c1 [1-(3-chlorophenyl)-3-(1-naphthalenylmethylideneamino)thiourea] | 11 µM
CNc1ccc(/C=C(\CCC(=O)O)c2nc3ccccc3s2)cc1[N+](=O)[O-] [MLS000394200] | 24.6 µM
O=C(CSc1ccc(-c2cccs2)nn1)Nc1ccccc1F [MLS000621184] | 5.12 µM
O=C(/C=C/c1ccco1)N1CCC(Cc2ccccc2)CC1 [(E)-1-(4-benzylpiperidin-1-yl)-3-(furan-2-yl)prop-2-en-1-one] | 6.56 µM
CC(C)(C)NC(=O)C(c1cccs1)N(CC1CCCO1)C(=O)c1ccc(-c2ccccc2)[nH]1 (stereo not drawn) [N-[2-(tert-butylamino)-2-oxo-1-thiophen-2-ylethyl]-N-(2-oxolanylmethyl)-5-phenyl-1H-pyrrole-2-carboxamide] | 0.449 µM
COc1cc(C(=S)N2CCOCC2)cc(OC)c1OC(=O)Cc1ccccc1 [(2,6-dimethoxy-4-morpholin-4-ylcarbothioyl-phenyl) 2-phenylethanoate] | 0.81 µM
O=C(NC(=S)Nc1nc(-c2cccc([N+](=O)[O-])c2)cs1)c1cc(Cl)ccc1Cl [2,5-bis(chloranyl)-N-[[4-(3-nitrophenyl)-1,3-thiazol-2-yl]carbamothioyl]benzamide] | 16.2 µM
COc1cccc(CNC(=O)CSc2ccc(-c3cccs3)nn2)c1 [MLS000621194] | 19.5 µM
O=C(O)c1cc([N+](=O)[O-])ccc1NCc1ccccc1 [2-(benzylamino)-5-nitro-benzoic acid] | 4.19 µM
O=C(CSc1nnc(-c2ccc(F)cc2)o1)N1CCN(C(=O)c2ccco2)CC1 [2-[5-(4-Fluoro-phenyl)-[1,3,4]oxadiazol-2-ylsulfanyl]-1-[4-(furan-2-carbonyl)-piperazin-1-yl]-ethanone] | 7.01 µM
Cc1ccc(CSCCNC(=O)c2ccc(C)cc2)cc1 [4-methyl-N-[2-[(4-methylbenzyl)thio]ethyl]benzamide] | 2690 µM

SMILES | EC50
Sc1nnc(CNc2cccc(Cl)c2)o1 [5-[(3-chloroanilino)methyl]-3H-1,3,4-oxadiazole-2-thione] | 1.75 µM
Cc1cccc(-c2nc(C[S+]([O-])CC(=O)N3CCc4ccccc4C3)c(C)o2)c1 (stereo not drawn) [1-(3,4-dihydro-1H-isoquinolin-2-yl)-2-[[5-methyl-2-(3-methylphenyl)-1,3-oxazol-4-yl]methylsulfinyl]ethanone] | 7.28 µM
O=C(NCC1CCCN(C(=O)c2cccnc2)C1)c1ccc(-c2ccccc2)cc1 (stereo not drawn) [4-phenyl-N-[(1-pyridin-3-ylcarbonylpiperidin-3-yl)methyl]benzamide] | 2.85 µM
O=C(CSc1nnc(Cc2ccccc2)o1)c1ccc(F)cc1 [1-(4-fluorophenyl)-2-[[5-(phenylmethyl)-1,3,4-oxadiazol-2-yl]sulfanyl]ethanone] | 2.39 µM
COc1ccc(S(=O)(=O)N(C)CC(=O)N2CCN(Cc3ccccc3)CC2)cc1C [4-methoxy-N,3-dimethyl-N-[2-oxidanylidene-2-[4-(phenylmethyl)piperazin-1-yl]ethyl]benzenesulfonamide] | 1.49 µM
O=C(Nc1ccc(Cc2ccncc2)cc1)c1cccc([N+](=O)[O-])c1 [3-Nitro-N-(4-pyridin-4-ylmethyl-phenyl)-benzamide] | 15.3 µM
O=C(C1CC1)N1CCc2cc(S(=O)(=O)NC3CCN(Cc4ccccc4)CC3)ccc21 [1-[cyclopropyl(oxo)methyl]-N-[1-(phenylmethyl)-4-piperidinyl]-2,3-dihydroindole-5-sulfonamide] | 6.33 µM
Cc1ccc2[nH]c3c(N4CCN(Cc5ccccc5)CC4)ncnc3c2c1 [8-methyl-4-[4-(phenylmethyl)-1-piperazinyl]-5H-pyrimido[5,4-b]indole] | 2.94 µM
O=S(=O)(Nc1nc2ccccc2nc1N1CCN(c2ccccn2)CC1)c1ccc(Cl)cc1 [4-chloranyl-N-[3-(4-pyridin-2-ylpiperazin-1-yl)quinoxalin-2-yl]benzenesulfonamide] | 6.8 µM
COc1ccc(S(=O)(=O)N2CCC(C(=O)N3CCc4ccccc4C3)CC2)cc1C [2-({1-[(4-methoxy-3-methylphenyl)sulfonyl]-4-piperidinyl}carbonyl)-1,2,3,4-tetrahydroisoquinoline] | 5.4 µM
O=C(c1cc2c(s1)-c1ccccc1OC2)N1CCC2(CC1)OCCO2 [1,4-dioxa-8-azaspiro[4.5]decan-8-yl(4H-thieno[3,2-c][1]benzopyran-2-yl)methanone] | 24.9 µM
COc1ccccc1NC(=S)NNC1=c2cc(Br)ccc2=NC1=O [MLS000778253] | 0.71 µM
O=C(Cn1c(-c2ccc(Cl)cc2)noc1=O)N1CCN(c2ccccc2F)CC1 [3-(4-Chloro-phenyl)-4-{2-[4-(2-fluoro-phenyl)-piperazin-1-yl]-2-oxo-ethyl}-4H-[1,2,4]oxadiazol-5-one] | 228 µM
CC1Cc2ccccc2N1C(=O)CSc1nnc(CNc2ccccc2)o1 (stereo not drawn) [1-(2-Methyl-2,3-dihydro-indol-1-yl)-2-(5-phenylaminomethyl-[1,3,4]oxadiazol-2-ylsulfanyl)-ethanone] | 0.941 µM
N#Cc1nc(Cc2cccc3ccccc23)oc1NCCN1CCOCC1 [5-(2-Morpholin-4-yl-ethylamino)-2-naphthalen-1-ylmethyl-oxazole-4-carbonitrile] | 5.4 µM
Cc1nn(-c2nc3ccccc3[nH]2)c(N)c1-c1ccccc1 [MLS000063763] | 21.3 µM

same assay, conditions: inactive by the depositor's call

SMILES | EC50
COc1cc(-c2nnc(CSc3nnc(Nc4ccc(C(C)C)cc4)s3)o2)cc(OC)c1OC [MLS000391281] | 2.2 µM
O=C(O)CC/C(=C\c1cccc(NC(=O)c2ccccc2Cl)c1)c1nc2ccccc2s1 [SMR000371789] | 4.76 µM
Cc1ccc(CN(C)C(=O)c2cc(COc3ccc(F)cc3Cl)on2)o1 [5-[(2-chloranyl-4-fluoranyl-phenoxy)methyl]-N-methyl-N-[(5-methylfuran-2-yl)methyl]-1,2-oxazole-3-carboxamide] | 89.2 µM
O=C(NC(=S)Nc1ccc(-c2nc3ncccc3o2)cc1)c1ccccc1F [2-fluoranyl-N-[[4-([1,3]oxazolo[4,5-b]pyridin-2-yl)phenyl]carbamothioyl]benzamide] | 1.8 µM
CN(C)CCn1c(=S)[nH]c2ccc(Cl)cc2c1=O [6-chloro-3-[2-(dimethylamino)ethyl]-2-thioxo-2,3-dihydroquinazolin-4(1H)-one] | 67.2 µM
CN(c1ccccc1)c1ccc(/C=C(\CCC(=O)O)c2nc3ccccc3s2)cc1[N+](=O)[O-] | 8.17 µM
